Test results from publication PMC12957798, “Adaptation of plateau frog peptide: From antimicrobial to angiogenic and proliferative functions” (Journal of Advanced Research, 2025).

Key:
[1] = tested on: A. baumannil ATCC1968; assay: Broth microdilution MIC, A. baumannii; assay type: cell-based, Acinetobacter baumannii; details: positive control, 37 °C, 24 h, OD600
Method: (§1) Disk diffusion and broth microdilution tests were selected as the standard method for screening the antimicrobial activity of SC17-2 [58]. The experiments were conducted utilising the disk diffusion test, whereby the following strains were examined: Acinetobacter baumannii (ATCC 19606), Candida auris (ATCC 10231), Pseudomonas aeruginosa (ATCC 27853) and Staphylococcus aureus (ATCC 6538). The concentration of bacterial suspension was then adjusted to 1 × 10^5 CFU/mL with saline, after which it was set aside. Separate plates containing bacterial agar were prepared: MH agar was utilised for the isolation of bacterial samples, while Sartorius agar was employed for the isolation of fungal samples. The suspensions containing the aforementioned microorganisms were then spread on the designated plates at a rate of 1:1000. A sterile filter paper was used to dispense 1 mL of SC17-2 (10 mg/mL), with equal amounts of PBS and Vancomycin/Colistin serving as controls. The plates were then subjected to the appropriate temperature (24 h at 37 °C) and subsequently observed under a camera to ascertain the results. […] At the conclusion of this period, the absorbance was measured using a Microplate Reader (Synergy H1, BioTek, USA) with a wavelength of 600 nm. […]

[2] = tested on: BALB/c mice; assay: Mouse full-thickness skin wound healing; assay type: in vivo; details: day 13, VEGF 20 ng/mL, 20 μL daily on wound, relative to day 1, mean ± SEM, n = 7
Method: Mice were anaesthetised with sodium pentobarbital 2 % by intraperitoneal injection (0.1 mL/20 g mouse body weight), and after anaesthesia, hair was removed from the back using depilatory cream and power scissors, and circular full-thickness skin wounds of the same diameter were marked and created on the back of each mouse using circular stamps and red sealant. The mouse wounds were then covered and infiltrated daily with 20 μL of different concentrations of SC17-2 or 20 ng/mL VEGF, and an equal volume of saline was used in the control group. The mice were anaesthetised by isoflurane nebulisation (concentration 2 %) every two days and then placed under an optical camera to photograph the effect of the wound area.
Sodium pentobarbital (2 %) was utilised for the anaesthetisation of mice by intraperitoneal injection (0.1 mL/20 g of mouse body weight). Subsequent to the induction of anaesthesia, the dorsal hair was removed using depilatory creams and electric scissors. Thereafter, circular full skin wounds of the same diameter were marked and created on the back of each mouse using circular stamps and red stencils. Mouse wounds were then covered and infiltrated daily with 20 μL of different concentrations of SC17-2 or 20 ng/mL of VEGF, and an equal volume of saline was used in the control group. Mice were anaesthetised every two days using isoflurane nebulisation followed by anaesthesia (concentration 2 %), after which they were placed under an optical camera to photograph the effect of wound area. After 13 days of treatment, mice were anaesthetised using isoflurane nebulisation followed by injection of an overdose of sodium pentobarbital to euthanise the mice (200 mg/kg). The wounds and their surrounding tissues were then excised for histopathological evaluation (Masson and H&E staining) and analysed by Enface immunofluorescence staining.

[3] = tested on: (p-Smad2/3)/(Smad2/3); assay: Western blot p-Smad2/3 / Smad2/3 in HaCaT; assay type: cell-based, Human; details: VEGF, n = 3
Method: (§2) HaCaT was inoculated in 12-well plates (2 × 10^5 cells/well) and cultured for 24 h. Afterwards, HaCaT cells were treated with equal amounts of VEGF, SC17-2, and PBS for 16 h. Cells were washed with PBS, after which the samples were collected and added to 1 mL of RIPA lysate containing protease inhibitors and phosphatase inhibitors and placed on ice for 30 min. Allowed to be after sufficient lysis, the supernatant was centrifuged and collected to determine the protein concentration using a nanodrop, followed by the addition of SDS sampling buffer and heating at 95 °C for 10 min. Samples were loaded and run on a gel block based on the determined sample concentration, and then electrotransferred onto a 0.45 μm PVDF membrane. […] After washing three times with TBST, proteins were visualised and scanned by enhanced chemiluminescence using the ChemiDoc XRS imaging system (Bio-Rad, Hercules, CA, USA).

[4] = tested on: TGF-β; assay: Western blot TGF-β in HaCaT; assay type: cell-based, Human; details: VEGF, n = 3
Method: as §2

[5] = tested on: p-ERK/ERK; assay: Western blot p-ERK/ERK in HaCaT; assay type: cell-based, Human; details: VEGF, n = 3
Method: as §2

[6] = tested on: S. aureus ATCC6538; assay: Broth microdilution MIC, S. aureus; assay type: cell-based, Staphylococcus aureus; set-up: unit not given beside the values; details: positive control, 37 °C, 24 h, OD600
Method: as §1

[7] = tested on: Escherichia coli ATCC2771; assay: Broth microdilution MIC, E. coli; assay type: cell-based; set-up: unit not given beside the values; details: positive control, 37 °C, 24 h, OD600
Method: as §1

For CN[C@H](CC(C)C)C(=O)N[C@H]1C(=O)N[C@@H](CC(N)=O)C(=O)N[C@H]2C(=O)N[C@H]3C(=O)N[C@H](C(=O)N[C@H](C(=O)O)c4cc(O)cc(O)c4-c4cc3ccc4O)[C@H](O)c3ccc(c(Cl)c3)Oc3cc2cc(c3O[C@@H]2O[C@H](CO)[C@@H](O)[C@H](O)[C@H]2O[C@H]2C[C@](C)(N)[C@H](O)[C@H](C)O2)Oc2ccc(cc2Cl)[C@H]1O [Vancomycin], the MIC [1] was 0.78.

In the case of VEGF, the wound area [2] is reported as 7.04 ± 1.43%, the Smad2/3 phosphorylation [3] is reported as “significantly increased Smad2/3 phosphorylation” and the “expression of TGF-β” value [4] is reported as “significantly increase the expression of TGF-β”. The ERK phosphorylation [5] was “significantly increased ERK phosphorylation”.

For Colistin, the MIC [6] was 0.78 and the MIC [7] was 0.78.
